Here are results for 3 molecules from the NIST ThermoML archive (doi:10.1021/je7000039).

± gives the expanded uncertainty stated by the source.

For the data set the following is noted: Crystal; DTA.
With `CO[C@H]1O[C@@H]2O[C@@]3(C)CC[C@H]4[C@H](C)CC[C@@H]([C@H]1C)[C@@]24OO3` [beta-artemether], the Normal melting temperature was 83.98 ± 0.5 °C. For `C[C@@H]1CC[C@H]2[C@@H](C)C(=O)O[C@@H]3O[C@@]4(C)CC[C@@H]1[C@]32OO4` [artemisinin] the value was 148.28 ± 0.5 °C; for `C[C@H]1[C@H](OC(=O)CCC(=O)O)O[C@@H]2O[C@@]3(C)CC[C@H]4[C@H](C)CC[C@@H]1[C@@]24OO3` [artesunate], 139.66 ± 0.5 °C.
